The values that follow come from US10196606B2, “Method of producing multipotent stem cells” (FLINDERS UNIVERSITY OF SOUTH AUSTRALIA, priority 2011, dated 2019).

Type in all cases: cell-based
The test system of test [1] is human umbilical cord fibroblast (HUCF) cells. Nature of the test: RT-PCR of cells induced from HUCF. The note with it: immediately after induction, prior to culture in NSC media. The procedure: mRNA was extracted from cells induced using BIX01294 and RG108 in combination or BIX01294 alone. A cell lysate from SKSY5Y cells (a neuroblastoma cell line) was used as a positive control, and HUCF cells at passage 17 following p75-NTR negative selection was used as a negative control. RT-PCR was performed as described in Example 1 for expression of typical neural stem cell genes GFAP, Sox2, Olig2, Nestin, and pluripotent stem cell genes Oct4 and Nanog, and loading control gene GAPDH using the primers described in Example 1.

The subject of test [2] is mouse embryonic fibroblasts (MEF). Kind of test: Induction of SMINS cells / ALP-positive neurospheres from MEF, 6 induction cycles. The note with it: withdrawal of individual small molecules from the combination. The procedure: (§1) Mouse embryonic fibroblasts (MEF) and mouse adult tail-tip fibroblasts (TTF) were isolated from C57/BL6 mice as described previously^2. Both cell types (ie MEF and TTF) were cultured in MEF medium (Dulbecco's Modified Eagle Medium (DMEM; Invitrogen Corporation, Carlsbad, Calif., United States of America) containing 10% Fetal Bovine Serum (FBS; Thermo Fisher Scientific, Waltham, Mass., United. States of America), 50 units/ml penicillin and 50 μg/ml streptomycin (Invitrogen)). Native NS cells were cultured from mouse brain at E12-E14 as positive controls in neural stem (NS) cell media.
(§2) 35 mm tissue culture dishes were coated with feeder cells (fibroblasts cultured from mouse embryo and seeded at 1.4×10^5 cells per 35 mm tissue culture dish) before induction. The MEF (passage 3) or TTF were seeded at 1.4×10^5 per 35 mm feeder cell-coated dish. The cells were induced in 6 cycles. […] The cells were then cultured in SCM in the absence of the small molecules for the next two days. Then, the cycle was repeated 5 times. Next, the cells were passaged and suspended in a drop of […] containing at least 50 cells for two days. Finally, the cells were cultured in the neural stem (NS) cell medium (DMEM/F12 (Invitrogen) supplemented with B-27 (1:50; Gibco Inc, Billings, Mont., United States of America), 50 units ml^−1 penicillin, 50 μg ml^−1 streptomycin, 8 mM HEPES buffer, 20 ng ml^−1 epidermal growth factor (EGF), 10 ng ml^−1 basic fibroblast growth factor (bFGF) for two weeks.
(§3) ES culture medium (also referred to as SCM herein) was added to NS and SMINS cells overnight. Alkaline phosphatase staining was carried out according to the manufacturer's protocol (Hoffman-La Roche, Basel, Switzerland). For the immunofluorescence staining, cells were washed with phosphate buffered saline (PBS) and then fixed with 4% paraformaldehyde for 10 min. After washing twice with PBS, the cells were permeabilised with 0.1% Triton X-100 for 20 min. Cells were then washed twice and blocked in blocking buffer (a solution of PBS containing 1% FBS and 4% bovine serum albumin (BSA)) for 1 hour. […]

In test [3] the test system is mouse adult tail-tip fibroblasts (TTF). Nature of the test: Induction of SMINS cells / ALP-positive neurospheres from TTF. The procedure:
as §1, §2, §3

For test [4], the system named is human umbilical cord fibroblast (HUCF) cells. Nature of the test: Immunocytochemistry of cells induced from HUCF. Here is the method:
Cells were induced with small molecules (BIX0124 alone or BIX0125 and RG108 in combination) as described above, with cells cultured in HIPS media at Days 2 and 3. Cells were cultured in NSC media for 0, 2 or 6 days as detailed below. Prior to immunofluorescence staining, cells were dissociated with Tryple-E enzyme as described above, and then incubated overnight at low density on poly-D-lysine coated coverslips in HIPS media prior to immunofluorescence staining.
Cells were then washed with PBS and then fixed with 4% paraformaldehyde for 10 min. After washing twice with PBS, cells were permeabilised with 0.1% Triton X-100 for 20 min. Cells were then washed twice and blocked in blocking buffer (a solution of PBS containing 1% FBS and 4% BSA) for 1 hour. Primary antibodies were diluted in blocking buffer in the following dilutions: anti-Sox2 (Millipore, 1:200, mouse), anti-SSEA-1 (Santa Cruz Biotechnology, 1:200, mouse), anti-glial fibrillary acidic protein (GFAP; Dako, 1:400, rabbit), anti-Map2 (Osenses, 1:1000, rabbit), anti-Olig2 (Osenses, 1:1000, rabbit), anti-Alpha-tubulin (Sigma, 1:1000, mouse), anti-neural/glial 2 (Abeam, 1:200), anti-nestin (DHSB, 1:1000), anti-Tuj1 Sigma, 1:300 and applied to the cells for 1 hour at room temperature or overnight at 4° C. Cells were washed three times with PBS and then secondary fluorescent antibodies (1:1000, Cy3 or Alexa-488) and counterstain with 10 μg/ml DAPI were applied for 1 hour at room temperature.
In one experiment, HUCF cells were induced as follows: At passage 17, HUCF cells were negatively selected for p75-NTR and then induced using BIX01294 alone in HIPS media for one day and HIPS media (no small molecules) for two days followed by culture in NSC media for 6 days. Meanwhile control HUCF cells at passage 17 were negatively selected for p75-NTR cells, and then passaged another 5 times. Cells were then stained with mouse anti-p75-NTR-FITC (Biosensis, 1:6, mouse) and counterstained with DAPI as described above.

Regarding `COc1cc2nc(N3CCCN(C)CC3)nc(NC3CCN(Cc4ccccc4)CC3)c2cc1OC.Cl.Cl.Cl.O` [BIX01294, 2-(hexahydro-4-methyl-1H-1,4-diazepin-1-yl)-6,7-dimethoxy-N-[1-(phenylmethyl)-4-piperidinyl]-4-quinazolinamine trihydrochloride hydrate], the “Sox2 expression (RT-PCR)” value in test [1] is reported as “expressed Sox2 immediately after induction”. Besides, in test [2], the “essential for generation of SMINS-MEF cells” value is recorded as “required for the induction”. Moreover, the “ALP-positive neurosphere produced from TTF” value in test [3] is “No”. In test [4] (6 days in NSC media), the “expression of neural stem cell marker nestin” value is recorded as “additionally express the neural stem cell marker nestin” and the “p75-NTR staining versus control p75-NTR negative HUCF” value is “marked upregulation”. Moreover, the “expression of NG2, Olig2, GFAP and Tuj1” value in test [4] (after culture in NSC media) is “some BIX01294 induced cells express”. In addition, the “expression of Sox2 and SSEA-1 (immunofluorescence)” value in test [4] (culture in NSC media for 0 or 6 days) was “clearly expressed Sox2 and SSEA-1”.
